In patent US9271965B2, “Crystalline forms of (R)-3-[N-(3'-chlorobiphenyl-4-ylmethyl)-N'-(3-hydroxyisoxazole-5-carbonyl)hydrazino]-2-hydroxyproprionic acid isopropyl ester” (Theravance Biopharma R&D IP, LLC, priority 2012, dated 2016):

Experiments:
Assay type in all cases: physicochemical
[1] = Heat induced decomposition by DSC and TGA; settings: 10° C. per minute, nitrogen purge
Procedure: (§1) The crystalline compounds were subjected to temperature scan using a TA Instruments Q100 differential scanning calorimeter equipped with a refrigerated cooling system. Samples were loaded into aluminum pans with crimped lids. In most cases, the samples were heated to 250° C. at a rate of 10° C. per minute under a purge of nitrogen gas. The data acquisition was controlled by Thermal Advantage software Release 5.1.2 and the data were analyzed with Universal Analysis 2000 software (version 4.7A).
as §1, with “Q500 thermal gravimetric analyzer.” for “Q100 differential scanning calorimeter equipped with a refrigerated cooling system.”, “platinum” for “aluminum”, “and” for “with crimped lids. In most cases, the samples were”

[2] = Exposure of Form 2 to 84% relative humidity, analysis by PXRD; settings: 84% RH for seven days
From the text: In one experiment, a sample of Form 2 was exposed to 84% RH for seven days. […] This experiment established that Form 2 is metastable to the monohydrate Form 1 in high relative humidities (>75% RH). Accordingly, in another embodiment, the crystalline neutral monohydrate Form 1 can be prepared by (a′) exposing the crystalline neutral Form 2 to high humidity; and in one embodiment exposing Form 2 to about >75% relative humidity, typically for about 5-7 days.

[3] = Dynamic moisture sorption (DMS) assessment; settings: for solid form (PXRD) after moisture sorption-desorption: PXRD before and after the DMS experiment; for hygroscopicity: from DMS profile, Form 1 per European Pharmacopoeia Technical Guide classification; for hysteresis between sorption and desorption: two cycles of water sorption and desorption
Procedure: In one embodiment, the crystalline neutral monohydrate Form 1 is characterized by the DMS profile in FIG. 4. Samples of Form 1 were subjected to isothermal moisture sorption analysis at 25° C. […] The step-like profile at 40-60% RH may indicate capillary condensation. At 90% RH, the total moisture uptake was ˜0.5%.
In one embodiment, the crystalline neutral Form 2 is characterized by the DMS profile in FIG. 11. Samples of Form 2 were subjected to isothermal moisture sorption analysis at 25° C. With increasing relative humidity, the amount of water adsorbed by the solid increased gradually up to 75% RH and steeply between 75%-90% RH […].
In one embodiment, the crystalline neutral anhydrous Form 3 is characterized by the DMS profile in FIG. 29. The DMS thermogram of Form 3 is similar to that of Form 2 (FIG. 11). […] The sample, however, loses the adsorbed water during desorption segment and returns to an anhydrous state. Overlay of the PXRD patterns of the sample before and after it was subjected the moisture sorption-desorption experiment is shown in FIG. 30. […] Form 3, like Form 2, is hygroscopic.
In one embodiment, the crystalline neutral anhydrous Form 4 is characterized by the DMS profile in FIG. 37. […] Form-4 is non-hygroscopic. […] Form 4, which is obtained from the monohydrate Form 1, is non-hygroscopic, whereas Form 3, which is obtained from anhydrous Form 2, is hygroscopic. […] Overlay of the PXRD patterns of the sample before and after it was subjected the moisture sorption-desorption experiment is shown in FIG. 30.
Moisture sorption and desorption data on the crystalline compounds were collected on a VTI SGA-100 Vapor Sorption Analyzer. Sorption and desorption data were collected over a range of 5% to 90% relative humidity (RH) at 5% RH intervals. Equilibrium criteria used for analysis were less than 0.01% weight change in 5 minutes, with a maximum equilibration time of three hours if the weight criterion was not met. Samples were subjected to initial drying or desorption steps to 5% RH followed by the sorption-desorption cycle. Data were collected at a time interval of two minutes or 0.01% change in weight.

[4] = Slurry of Form 2 in water, analysis by PXRD; settings: slurried in water (e.g., deionized water) for five days
From the text: This experiment established that Form 2 is metastable to the monohydrate Form 1 in solutions containing water. Thus, in yet another embodiment, the crystalline neutral monohydrate Form 1 can be prepared by (a″) reslurrying the crystalline neutral Form 2 in water or an aqueous solution; (b″) heating then cooling the resulting slurry; (c″) optionally stirring or sonicating to complete dissolution; and allowing solids to form and isolating the solids to yield the crystalline neutral monohydrate Form 1. […] Step (a″) is typically conducted by first treating Form 2 with methanol, and subsequently adding water as an anti-solvent to form a slurry. Step (b″) generally involves heating the slurry to a temperature within the range of about 55-75° C., and in one embodiment to about 60° C. The cooling in step (b″) is generally to about room temperature.

[5] = Retention of lattice water under ambient conditions and under high vacuum

Compound	heat induced decomposition temperature [1]	solid form after exposure to high humidity [2]	total quantity of water taken up in the DMS experiment ([3]; DMS, 25° C.)	solid form (PXRD) after moisture sorption-desorption [3]	hygroscopicity [3]	hysteresis between sorption and desorption [3]	solid form after slurrying in water [4]	water taken up when exposed up to 90% RH ([3]; DMS, up to 90% RH)	total moisture uptake ([3]; isothermal moisture sorption at 25° C., at 90% RH)	loss of lattice water ([5]; exposed to ambient conditions for more than a month)	loss of lattice water ([5]; placed in high vacuum for more than 24 hours)	water taken up between 75% RH and 90% RH ([3]; DMS, between 75% RH and 90% RH)
CC(C)OC(=O)[C@H](O)CN(Cc1ccc(-c2cccc(Cl)c2)cc1)NC(=O)c1cc(O)no1 [Form 2, (R)-3-[N-(3′-chlorobiphenyl-4-ylmethyl)-N′-(3-hydroxyisoxazole-5-carbonyl)hydrazino]-2-hydroxypropionic acid isopropyl ester]	> 175 °C	converts to Form 1 at high humidities	3.5-3.6%	showed a PXRD pattern that matched with the starting material	hygroscopic	showed distinct hysteresis	PXRD pattern consistent with Form 1					
CC(C)OC(=O)[C@H](O)CN(Cc1ccc(-c2cccc(Cl)c2)cc1)NC(=O)c1cc(O)no1 [Form 4, (R)-3-[N-(3′-chlorobiphenyl-4-ylmethyl)-N′-(3-hydroxyisoxazole-5-carbonyl)hydrazino]-2-hydroxypropionic acid isopropyl ester]				retained its solid-state structure	non-hygroscopic	no hysteresis		less than 0.1 % by weight				
CC(C)OC(=O)[C@H](O)CN(Cc1ccc(-c2cccc(Cl)c2)cc1)NC(=O)c1cc(O)no1 [Form 1, (R)-3-[N-(3′-chlorobiphenyl-4-ylmethyl)-N′-(3-hydroxyisoxazole-5-carbonyl)hydrazino]-2-hydroxypropionic acid isopropyl ester]	> 175 °C			did not show any change in their PXRD pattern	slightly hygroscopic	did not show hysteresis			~0.5%	did not lose lattice water	did not lose lattice water	
CC(C)OC(=O)[C@H](O)CN(Cc1ccc(-c2cccc(Cl)c2)cc1)NC(=O)c1cc(O)no1 [Form 3, (R)-3-[N-(3′-chlorobiphenyl-4-ylmethyl)-N′-(3-hydroxyisoxazole-5-carbonyl)hydrazino]-2-hydroxypropionic acid isopropyl ester]				returns to the same solid form after moisture sorption and desorption	hygroscopic							about 3.5%
